Source: patent publication US10166279B2, “Vaccine” (Bergen Teknologioverføring AS, priority 2013, dated 2019)
Peptide text beside a SMILES is read from it.

These compounds were tested against T1, GC-C receptor (Homo sapiens, UniProt P25092) (assay: GC-C receptor T-84 cell assay (toxicity, cGMP levels) of culture filtrates). Conditions: T84 cell assay, culture filtrate.
T1 construct: endogenous in cells; host or cells: T-84 cells
Assay type: cell-based
Description: T-84 cells were seeded and cultured in each well of a 24 well plate. After removing the Dulbecco's modified Eagle's medium (DMEM:F12 (1:1) Lonza Walkersville, Inc.), cells were washed 3 times with 0.5 mL DMEM. Cells were incubated with 0.25 mL DMEM containing 1 mM 3-isobutyl-1-methylxanthine (IBMX) for 10 min at 37° C. 0.1 mL of sample (culture filtrate) was added to each well and incubated for 60 min at 37° C. Following incubation, the reaction medium was aspirated, and the cells were lysed with […] HCl at room temperature for 20 min. The lysates were centrifuged at top speed for 10 min and the cGMP levels were measured in control- and agonist-stimulated cells with a direct cGMP enzyme immunoassay kit (Enzo Life Sciences, Inc.) according to the manufacturer's instructions.
The culture filtrate of each mutant was added to the T-84 cells in duplicate, and a serial dilution of culture filtrates with recombinantly expressed native ST was used to generate a standard curve.
Toxicity measured in culture filtrates is a product of intrinsic toxicity (toxicity per mol) and the concentration of the ST mutant. The same is true for antigenicity. […] Since we have no method for accurately measuring ST (mutant) concentrations in culture filtrates, we are not able to directly measure intrinsic toxicities and antigenicities for the ST mutants.
To circumvent this problem we measure toxicity and antigenicity for the ST mutants relative to native ST. This allows us to describe changes in toxicity and antigenicity in mutant culture filtrates. Next, we divide the change in antigenicity by the change in toxicity for each mutant. If the same culture filtrate has been used to measure toxicity and antigenicity this allows us to eliminate the of the concentration.

T1 sequence (P25092 24-1073): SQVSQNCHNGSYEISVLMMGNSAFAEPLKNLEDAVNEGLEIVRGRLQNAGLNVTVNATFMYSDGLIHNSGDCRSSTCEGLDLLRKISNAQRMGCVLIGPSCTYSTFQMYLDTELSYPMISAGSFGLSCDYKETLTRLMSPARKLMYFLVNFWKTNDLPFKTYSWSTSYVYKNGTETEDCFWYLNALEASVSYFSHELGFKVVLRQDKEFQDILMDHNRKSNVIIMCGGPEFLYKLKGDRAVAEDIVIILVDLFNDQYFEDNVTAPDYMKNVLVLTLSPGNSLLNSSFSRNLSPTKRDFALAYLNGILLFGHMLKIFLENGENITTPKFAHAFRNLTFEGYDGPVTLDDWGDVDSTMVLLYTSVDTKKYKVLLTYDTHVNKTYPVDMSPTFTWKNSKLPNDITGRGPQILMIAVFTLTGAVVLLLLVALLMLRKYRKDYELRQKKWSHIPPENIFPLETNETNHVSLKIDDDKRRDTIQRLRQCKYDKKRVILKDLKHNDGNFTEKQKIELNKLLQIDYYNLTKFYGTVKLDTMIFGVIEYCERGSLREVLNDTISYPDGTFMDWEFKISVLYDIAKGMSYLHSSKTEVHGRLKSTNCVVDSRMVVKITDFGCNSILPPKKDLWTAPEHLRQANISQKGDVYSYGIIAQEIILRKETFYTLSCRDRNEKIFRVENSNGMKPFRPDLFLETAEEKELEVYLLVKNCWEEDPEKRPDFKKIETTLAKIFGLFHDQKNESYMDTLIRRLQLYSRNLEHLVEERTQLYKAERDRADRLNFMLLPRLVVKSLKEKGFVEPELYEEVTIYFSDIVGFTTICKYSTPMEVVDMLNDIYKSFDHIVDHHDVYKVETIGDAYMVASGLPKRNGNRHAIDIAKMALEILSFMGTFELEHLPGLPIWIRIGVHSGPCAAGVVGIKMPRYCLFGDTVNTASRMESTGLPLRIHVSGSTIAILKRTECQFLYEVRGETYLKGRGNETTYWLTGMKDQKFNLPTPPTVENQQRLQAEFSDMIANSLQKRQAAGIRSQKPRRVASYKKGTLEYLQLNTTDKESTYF

Compound	toxicity relative to native STh
CC(C)C[C@@H]1NC(=O)[C@H](CCC(=O)O)NC(=O)[C@@H]2CSSC[C@@H]3NC(=O)[C@H](C)NC(=O)[C@@H]4CCCN4C(=O)[C@H](C(C)C)NC(=O)[C@H](CSSC[C@H](NC(=O)[C@H](Cc4ccc(O)cc4)NC(=O)[C@H](CC(N)=O)NC(=O)[C@H](CO)NC(=O)[C@H](CO)NC(=O)[C@@H](N)CC(N)=O)C(=O)N2)NC(=O)[C@H](CSSC[C@@H](C(=O)N[C@@H](Cc2ccc(O)cc2)C(=O)O)NC(=O)CNC(=O)[C@H]([C@@H](C)O)NC3=O)NC1=O [Mutant N12V] (HELM PEPTIDE1{N.S.S.N.Y.C.C.E.L.C.C.V.P.A.C.T.G.C.Y}$PEPTIDE1,PEPTIDE1,6:R3-11:R3|PEPTIDE1,PEPTIDE1,7:R3-15:R3|PEPTIDE1,PEPTIDE1,10:R3-18:R3$$$V2.0)	0.01

Same assay, conditions: relative to native STh; culture filtrate; ^2 = no detectable toxicity, set to detection limit 0.0014

Compound	Toxicity
C[C@@H]1NC(=O)[C@@H]2CCCN2C(=O)[C@H](CC(N)=O)NC(=O)[C@@H]2CSSC[C@H](NC(=O)[C@H](Cc3ccc(O)cc3)NC(=O)[C@H](CC(N)=O)NC(=O)[C@H](CO)NC(=O)[C@H](CO)NC(=O)[C@@H](N)CC(N)=O)C(=O)N[C@H]3CSSC[C@H](NC1=O)C(=O)N[C@@H]([C@@H](C)O)C(=O)NCC(=O)N[C@H](C(=O)N[C@@H](Cc1ccc(O)cc1)C(=O)O)CSSC[C@H](NC(=O)CNC(=O)[C@H](CCC(=O)O)NC3=O)C(=O)N2 [Mutant L09G] (HELM PEPTIDE1{N.S.S.N.Y.C.C.E.G.C.C.N.P.A.C.T.G.C.Y}$PEPTIDE1,PEPTIDE1,6:R3-11:R3|PEPTIDE1,PEPTIDE1,7:R3-15:R3|PEPTIDE1,PEPTIDE1,10:R3-18:R3$$$V2.0)	< 0.0014^2
CC(C)C[C@@H]1NC(=O)[C@H](CCCNC(=N)N)NC(=O)[C@@H]2CSSC[C@@H]3NC(=O)[C@H](C)NC(=O)[C@@H]4CCCN4C(=O)[C@H](CC(N)=O)NC(=O)[C@H](CSSC[C@H](NC(=O)[C@H](Cc4ccc(O)cc4)NC(=O)[C@H](CC(N)=O)NC(=O)[C@H](CO)NC(=O)[C@H](CO)NC(=O)[C@@H](N)CC(N)=O)C(=O)N2)NC(=O)[C@H](CSSC[C@@H](C(=O)N[C@@H](Cc2ccc(O)cc2)C(=O)O)NC(=O)CNC(=O)[C@H]([C@@H](C)O)NC3=O)NC1=O [Mutant E08R] (HELM PEPTIDE1{N.S.S.N.Y.C.C.R.L.C.C.N.P.A.C.T.G.C.Y}$PEPTIDE1,PEPTIDE1,6:R3-11:R3|PEPTIDE1,PEPTIDE1,7:R3-15:R3|PEPTIDE1,PEPTIDE1,10:R3-18:R3$$$V2.0)	0.0021
CC(C)C[C@@H]1NC(=O)[C@H](CCC(=O)O)NC(=O)[C@@H]2CSSC[C@@H]3NC(=O)[C@H](CCC(=O)O)NC(=O)[C@@H]4CCCN4C(=O)[C@H](CC(N)=O)NC(=O)[C@H](CSSC[C@H](NC(=O)[C@H](Cc4ccc(O)cc4)NC(=O)[C@H](CC(N)=O)NC(=O)[C@H](CO)NC(=O)[C@H](CO)NC(=O)[C@@H](N)CC(N)=O)C(=O)N2)NC(=O)[C@H](CSSC[C@@H](C(=O)N[C@@H](Cc2ccc(O)cc2)C(=O)O)NC(=O)CNC(=O)[C@H]([C@@H](C)O)NC3=O)NC1=O [Mutant A14E] (HELM PEPTIDE1{N.S.S.N.Y.C.C.E.L.C.C.N.P.E.C.T.G.C.Y}$PEPTIDE1,PEPTIDE1,6:R3-11:R3|PEPTIDE1,PEPTIDE1,7:R3-15:R3|PEPTIDE1,PEPTIDE1,10:R3-18:R3$$$V2.0)	< 0.0014^2
CC[C@H](C)[C@@H]1NC(=O)[C@@H]2CCCN2C(=O)[C@H](CC(N)=O)NC(=O)[C@@H]2CSSC[C@H](NC(=O)[C@H](Cc3ccc(O)cc3)NC(=O)[C@H](CC(N)=O)NC(=O)[C@H](CO)NC(=O)[C@H](CO)NC(=O)[C@@H](N)CC(N)=O)C(=O)N[C@H]3CSSC[C@H](NC1=O)C(=O)N[C@@H]([C@@H](C)O)C(=O)NCC(=O)N[C@H](C(=O)N[C@@H](Cc1ccc(O)cc1)C(=O)O)CSSC[C@H](NC(=O)[C@H](CC(C)C)NC(=O)[C@H](CCC(=O)O)NC3=O)C(=O)N2 [Mutant A14I] (HELM PEPTIDE1{N.S.S.N.Y.C.C.E.L.C.C.N.P.I.C.T.G.C.Y}$PEPTIDE1,PEPTIDE1,6:R3-11:R3|PEPTIDE1,PEPTIDE1,7:R3-15:R3|PEPTIDE1,PEPTIDE1,10:R3-18:R3$$$V2.0)	< 0.0014^2
CC(C)C[C@@H]1NC(=O)[C@H](CCC(=O)O)NC(=O)[C@@H]2CSSC[C@@H]3NC(=O)[C@H](C)NC(=O)[C@@H]4CCCN4C(=O)[C@H](CC(N)=O)NC(=O)[C@H](CSSC[C@H](NC(=O)[C@H](Cc4ccc(O)cc4)NC(=O)[C@H](CC(N)=O)NC(=O)[C@H](Cc4ccccc4)NC(=O)[C@H](CO)NC(=O)[C@@H](N)CC(N)=O)C(=O)N2)NC(=O)[C@H](CSSC[C@@H](C(=O)N[C@@H](Cc2ccc(O)cc2)C(=O)O)NC(=O)CNC(=O)[C@H]([C@@H](C)O)NC3=O)NC1=O [Mutant S03F] (HELM PEPTIDE1{N.S.F.N.Y.C.C.E.L.C.C.N.P.A.C.T.G.C.Y}$PEPTIDE1,PEPTIDE1,6:R3-11:R3|PEPTIDE1,PEPTIDE1,7:R3-15:R3|PEPTIDE1,PEPTIDE1,10:R3-18:R3$$$V2.0)	0.3871
CC(C)C[C@@H]1NC(=O)[C@H](CCC(=O)O)NC(=O)[C@@H]2CSSC[C@@H]3NC(=O)[C@H]([C@@H](C)O)NC(=O)[C@@H]4CCCN4C(=O)[C@H](CC(N)=O)NC(=O)[C@H](CSSC[C@H](NC(=O)[C@H](Cc4ccc(O)cc4)NC(=O)[C@H](CC(N)=O)NC(=O)[C@H](CO)NC(=O)[C@H](CO)NC(=O)[C@@H](N)CC(N)=O)C(=O)N2)NC(=O)[C@H](CSSC[C@@H](C(=O)N[C@@H](Cc2ccc(O)cc2)C(=O)O)NC(=O)CNC(=O)[C@H]([C@@H](C)O)NC3=O)NC1=O [Mutant A14T] (HELM PEPTIDE1{N.S.S.N.Y.C.C.E.L.C.C.N.P.T.C.T.G.C.Y}$PEPTIDE1,PEPTIDE1,6:R3-11:R3|PEPTIDE1,PEPTIDE1,7:R3-15:R3|PEPTIDE1,PEPTIDE1,10:R3-18:R3$$$V2.0)	< 0.0014^2

The compounds below were run on anti-STh mAb ST:G8 (assay: Competitive ELISA with anti-STh antibodies (polyclonal, mAb ST:G8)). Conditions: polyclonal and monoclonal (ST:G8) anti-STh antibodies.
Assay type: binding
Description: Competitive STh ELISA was performed as previously described (PMID: 6520401; Lockwood and Robertson, J Immunol Methods. 1984 Dec. 31; 75(2):295-307) with minor modifications. A U-shaped microtiter plate (Linbro, Fisher Scientific, Göteborg, Sweden) was coated with STh-ovalbumin conjugate diluted in ELISA buffer (NaCl 128 mM, KCl 2.68 mM, KH2PO4 1.47 mM, Na2HPO4 8.10 mM; pH 7.0-7.2). The plate was covered with plate sealer and incubated overnight at 37° C. Contents of the wells were discarded by inversion. Additional protein binding sites were blocked by incubating with ovalbumin 1% (w/v) (Sigma-Aldrich) diluted in ELISA buffer. After incubation for 1 h at 37° C., wells were emptied and washed three times with wash buffer (ELISA buffer containing ovalbumin 0.05% (w/v) and Tween-20 0.05% (v/v)). 75 μL of samples containing STh and 75 μL of diluted antisera (Protein-A purified rabbit anti-STa kindly supplied by John D. Clements; Department of Microbiology and Immunology, Tulane University, New Orleans, USA) were added. Both dilutions were done in ELISA buffer containing ovalbumin 0.05% (w/v). Appropriate dilutions and concentrations of reagents were determined by checkerboard titrations. The plate was incubated for 2 h at 37° C., in a rotary incubator shaker (Infors HT, Bottmingen/Basel Switzerland) at 180 rpm. Wells were emptied and washed three times with wash buffer. 100 μL of anti-Rabbit IgG Alkaline Phosphatase Conjugate developed in goat (Sigma-Aldrich) diluted 1:400 in ELISA buffer with ovalbumin 0.05% (w/v) were add and incubated with not shaking for 1 h at 37° C. Wells were emptied and washed three times with wash buffer followed by addition of 100 μL of 4-Nitrophenyl phosphate disodium salt hexahydrate at 1 mg/mL in diethanolamine buffer (diethanolamine 9.7% (v/v), MgCl2×6H2O 0.49 mM; pH 9.8). After incubation for 30 min, the reaction was stopped with 50 μL 2N NaOH (VWR international) in each well. The absorbance was read in an automatic plate reader at 405 nm (FLUOstar OPTIMA; BMG Labtech, Germany). All samples were measured in triplicate.
The anti-STh mAb ST:G8 was kindly supplied by S. Visweswariah [Garrett & Visweswariah; PMID: 8950201]. The anti-STp mAbs clone 29, clone 30, and clone 31 were obtained from Fitzgerald Industries International.
ELISA-plates (Nunc Amino Immobilizer) were coated with STh-OvA conjugate in PBS, volume 100 μl per well (synthetic STh conjugated to OvA: For ST:G8 0.04 μl/well, for clone 29 and clone 30 0.01 μl/well). Plates were incubated overnight at 4 C. Subsequently, plates were emptied and blocked with PBS-T 1% OvA for 1h at 20° C. with shaking 180 rpm. […] Developing was stopped by adding 50 μl NaOH 2M to each well, and OD was read at 405 nm with a Fluostar Optima plate reader.

Compound	binding by anti-STh antibodies
NSSNYCCELCCNPACTGCY [STh]	bound
guanylin (PGTCEICAYAACTGC) [endogenous peptide ligand of the GC-C receptor]	not
NTFYCCELCCNPACAGCY [STp]	bound
